A short description of one data set: In vitro release studies. Format: physicochemical. The protocol:
Drug release kinetics of imiquimod from various […] formulations were studied by placing aliquots of drug-loaded hydrogel into 50 mL conical tubes at 100 rpm at 37° C., releasing drug into DPBS. 50 μL of […] were added to the bottom of 50 mL conical Falcon tubes or in a dialysis tubing (D-tube Dialyzer Maxi, MWCO 3.5 kDa) at room temperature and brought to gel state by incubating at 37° C. for 30 min while DPBS as receiving fluid was preheated at the same temperature. After […] solidified, 50 mL DPBS (pH 7.4), Lactated […]), or Acetate Buffer (pH 5, 0.03 m Acetic acid, and 0.07 m Sodium Acetate in DI water) were added slowly to the conical tubes. These containers were then incubated at 37° C. under shaking at 100 rpm. 400 μL samples were taken from the receiving fluid with a 1 mL syringe through 0.2 μm filters (PALL super membrane low protein binding non-pyrogenic) to avoid accidental removal of gel. Concentration of imiquimod in the samples was assessed eluting the samples on an Agilent 1100 high-performance liquid chromatography (HPLC) with UV detector at 242 nm over an Eclipse XD8-C18 column (150×4.6 mm, 3.5 μm pore size) with an acetonitrile/water gradient from 5/95 to 95/5 over 6 min at 1 mL mi-1 n. […] Concentrations were calculated from UV signals using a calibration curve of known concentration imiquimod standards in DMSO/Acetonitrile.

A further data set deals with CT-26 tumors. Briefly: Dual tumor model survival study, CT-26. Type of data set: in vivo, balb/c mice. Conditions: CT-26 model. On the procedure: Per experimental arm 10-15 Balb c^−1 mice were injected with approximately 10^6 cells of CT-26 or EMT-6 cells, day 0 (FIG. 6) in bilateral flanks. Immunotherapy (anti-PD-1 (3.9 mg mL^−1), anti-CTLA-4 (2.2 mg mL^−1) co-immunotherapy was given intraperitoneally (Sigma-Aldrich) every 3 days from day 3-12. Mice with primary and contralateral tumors of at least 6 mm were chosen to be randomized to various treatment arms evaluating CPI with and without cryoablation, imiquimod drug-only injection, PLGA-PEG-PLGA only injection, or imigel (3:1) injection. The imigel, gel alone, or serial imiquimod suspensions were injected as 50 μL injections using a 26-gauge needle. For cryoablation, parameters included a 30 s freeze, followed by 2 min thaw, followed by a 30 s freeze with goal of approximately 50% tumoral freezing. When using cryoablation, the drug formulations were injected 5 min post final freeze, with a mild pause during injection to ensure no push back via the tract into the remaining viable tumor. Imiquimod alone was prepared as a suspension by 30 min of sonication at 1 mg mL^−1 in normal saline. Injections for imiquimod alone were done as a total 50 μL 1 mg mL^−1 injections once per day for six total doses. Specifically, Imigel delivered a total of 300 μg in one injection in two 25 μL injection depots within the tumor at the same injection session for only one session. […]

For data set [1] the following is noted: cited from earlier work.
Data set [2] can be described thus: Solubility / encapsulation of immunoadjuvant in PLGA-PEG-PLGA micelles. Format: physicochemical. The protocol:
Typically, 1 g of PLGA-PEG-PLGA was dissolved in 4 ml 0.9% saline solution (Baxter, Deerfield, IL) to obtain a 25% weight/volume (w/v) concentration at 4° C. over 2 days and vortexed/stirred daily. Importantly, the normal saline cannot contain the preservative phenol, commonly found in preservative containing commercial saline solutions. After a homogeneous hydrogel solution was observed by stirring with a spatula, imiquimod was added at 24 mg to the batch, the dispersion was vortexed and allowed to dissolve at room temperature over 2 days. Some of the gels received Iopamidol as contrast agent at 100 mg mL^−1, which was left to disperse or dissolve over 1 day. The resulting Imigel or Imigel+Iopamidol was stored at room temperature, shielded from evaporation, and used within 1 week from full dissolution to prevent hydrolysis. (FIGS. 3A-3E).

The subject of data set [3] is CD8+ T cells in CT-26 tumors. Briefly: Intratumoral flow cytometry, CT-26 model. Format: in vivo, mice. To be noted: compared to CPI only. The protocol:
Additional groups of 4 mice were injected with CT-26 and treated as above. 6 days post local intervention, mice were euthanized, and ipsilateral and contralateral tumors excised. In all cases of this example, tumor samples were minced and then incubated in a collagenase solution (1 mg mL^−1 in RPMI—1640) for approximately 45 min at 37° C. Tumors were processed into a single cell suspension using a 70 μm cell strainer.
For flow cytometry, using the cells harvested as above, cell viability was assessed by trypan blue staining, and 1×10^6 viable cells were stained for flow cytometry analysis. Cells were washed with PBS and stained with a 1:1000 solution of ZOMBIE Aqua (from […], Biolegend) and incubated on ice for 15 min. […] Cells were resuspended in cell staining buffer, and the samples were analyzed on an Aurora (Cytek Biotechnology). […] Gating for individual markers was determined by fluorescent minus one (FMO) control panels and unstained controls. […]

Regarding `O=S(=O)([O-])[O-].[Ba+2]` [barium sulfate], in “In vitro release studies” (phosphate buffer solution at 37 degrees C), the “effect on release profile of imiquimod from injectable composition” value was “does not significantly change the release profile of imiquimod”.
Consider `CC(C)Cn1cnc2c(N)nc3ccccc3c21` [imiquimod], for which the 90-day survival in the data set on CT-26 tumors (serial imiquimod (6 daily injections) with CPI and cryoablation) is recorded as 46.7%; in the data set on CT-26 tumors (serial imiquimod (6 daily injections) with CPI, no cryoablation), 57%. The solubility in saline entry in data set [1] was “around 0.002 mg mL^−1”. In data set [2] (PLGA1.5k-PEG1.5k-PLGA1.5k micelles (hydrogel solution), aqueous with cosolvent or surfactant or cyclodextrin, thermodynamic from solid, in PLGA1.5k-PEG1.5k-PLGA1.5k micelles, read-out: concentration uniformly solubilized), the solubility at 2 days was roughly 6000 µg/mL. Also, the “increase of aqueous solubility” value in data set [2] (encapsulated in micellar structure of PLGA-PEG-PLGA) is recorded as “approximately 2000 fold”. The “percentage of activated CD8+ T cells (dual CD44+PD1+ among CD8+ T-cells)” value in data set [3] is recorded as “significant increase”.
With `CCCN(CCC)C(=O)C1=Cc2ccc(-c3ccc(C(=O)N4CCCC4)cc3)cc2N=C(N)C1` [motolimod], the “release profile of motolimod” value in “In vitro release studies” (into PBS, PLGA-PEG-PLGA 1600-1500-1600 and 1500-1500-1500) is recorded as “relatively extended”. In data set [2] (motolimod in PLGA-PEG-PLGA injectable composition), the encapsulation entry is “around 6 mg/mL”.

These data come from patent US20250235533A1, “INJECTABLE PROLONGED-RELEASE HYDROGEL FORMULATIONS OF TOLL-LIKE RECEPTOR AGONISTS FOR INTRATUMORAL INJECTION TO INCREASE IMMUNOTHERAPY RESPONSE” (priority 2024, published 2025).
